# According to article PMC4494852, “Microwave-assisted preparation, structural characterization, lipophilicity, and anti-cancer assay of some hydroxycoumarin derivatives” (Monatshefte Fur Chemie, 2014):
# Assays:
# [1] = test system: leukemia RPMI-8226; design: method as in PMID 21439691; details: cited from earlier work
# [2] = test system: non-small-cell lung cancer NCI-H522; design: method as in PMID 21439691; details: cited from earlier work
# [3] = test system: leukemia K-562; design: method as in PMID 21439691; details: cited from earlier work
# [4] = test system: prostate cancer PC-3; design: method as in PMID 21439691; details: cited from earlier work
# [5] = test system: leukemia HL-60 (TB); design: method as in PMID 21439691; details: cited from earlier work
# [6] = test system: human prostate cancer cells DU145; experiment: Cytotoxicity assay (PrestoBlue, resazurin); format: cell-based; details: 10 and 100 μM, 48 h
# Method: (§1) Synthesized substances were dissolved in DMSO (Sigma-Aldrich) to obtain 20 mM stock solutions and kept in 4 °C prior to use.
# (§2) The human prostate cancer cells DU145 and mouse melanoma cells B16F10 were maintained in humidified incubator containing 5 % CO2 at 37 °C. DU145 cells were cultured in RPMI medium and B16F10 were cultured in DMEM medium. The media were supplemented with 10 % of fetal calf serum (FCS) and 1 % of antibiotic antimycotic (Sigma). Cells were passaged every 2–3 days. All cell lines were obtained from ATCC (The Global Bioresource Center).
# (§3) PrestoBlue (test based on resazurin) was used for analysis cytotoxicity/cytostatic effects. DU145 and B16F10 cells were seeded on 96-well plate (10 × 10^3 cells per well). Examined substances were added to culture after overnight cell incubation. Two concentrations of substances (10 and 100 μM) were used. Control cells and control cells with solvent (DMSO) were applied. After 48 h PrestoBlue test was performed.
# [7] = test system: mouse melanoma cells B16F10; experiment: Cytotoxicity assay (PrestoBlue, resazurin); format: cell-based; details: B16-F10 (melanoma), 10 and 100 μM, 48 h
# Method: as §1, §2, §3
# [8] = Lipophilicity by reversed-phase TLC on RP-18 WF254s plates with standardization; details: for φ 0 (intercept of the trend line with abscissa axis): molar fraction for which lipophilicity equals 0
# [9] = test system: P-388 lymphotic leukemia; design: method as in doi:10.1021/jo00316a018; details: cited from earlier work
# [10] = test system: Walker 256 carcinosarcoma; design: method as in doi:10.1021/jo00316a018; details: cited from earlier work
# [11] = test system: Lewis lung carcinoma; design: method as in doi:10.1021/jo00316a018; details: cited from earlier work
# [12] = test system: sarcoma 180; design: method as in doi:10.1021/jo00316a018; details: cited from earlier work
S (slope of the trend line RM vs φ) ([8]; acetonitrile/water),φ 0 (intercept of the trend line with abscissa axis) ([8]; acetonitrile/water),S (slope of the trend line RM vs φ) ([8]; dioxane/water),φ 0 (intercept of the trend line with abscissa axis) ([8]; dioxane/water),S (slope of the trend line RM vs φ) ([8]; isopropanol/water),φ 0 (intercept of the trend line with abscissa axis) ([8]; isopropanol/water),S (slope of the trend line RM vs φ) ([8]; methanol/water),φ 0 (intercept of the trend line with abscissa axis) ([8]; methanol/water),melting point [°C],SMILES,growth inhibition [1],growth inhibition [2],growth inhibition [3],growth inhibition [4],growth inhibition [5],cytotoxicity in primary screen [6],cytotoxicity in primary screen [7],inhibitory activity [9],inhibitory activity [10],inhibitory activity [11],inhibitory activity [12]
–,–,–,–,–,–,–,–,–,CC(=O)c1c(OCC#N)ccc2c(C)cc(=O)oc12 [8-Acetyl-7-(cyanomethoxy)-4-methylcoumarin],inhibited the growth,inhibited the growth,inhibited the growth,inhibited the growth,inhibited the growth,–,–,–,–,–,–
3.2466,0.437,3.3439,0.483,2.8574,0.445,2.746,0.675,–,"Cc1cc(O)c2c(C)cc(=O)oc2c1 [Compound 2, 5-hydroxy-4,7-dimethylcoumarin]",–,–,–,–,–,slightly active,slightly active,–,–,–,–
3.706,0.519,4.1018,0.55,3.15,0.479,3.2113,0.754,–,"CC(=O)c1c(C)cc2oc(=O)cc(C)c2c1O [Compound 3, 6-acetyl-5-hydroxy-4,7-dimethylcoumarin]",–,–,–,–,–,slightly active,slightly active,–,–,–,–
3.7596,0.517,3.2502,0.501,3.2079,0.383,2.3247,0.577,283 to 284,"CC(=O)c1c(C)cc2oc(=O)cc(C)c2c1OCC#N [Compound 6, 6-acetyl-5-(cyanomethoxy)-4,7-dimethylchromen-2-one]",–,–,–,–,–,–,–,–,–,–,–
–,–,–,–,–,–,–,–,–,C/C(=C\COc1ccc2ccc(=O)oc2c1)C1=CC(=O)C(C)(C)O1 [Geiparvarin],–,–,–,–,–,–,–,significant inhibitory activity,significant inhibitory activity,significant inhibitory activity,significant inhibitory activity
